Reference: patent US12258574B2, “Methods and compositions for transducing lymphocytes and regulating the activity thereof” (Exuma Biotech Corp., priority 2016, dated 2025)
Where a name gives a salt, the structure may show the parent alone.

Experiments:
[1] = Deep sequencing and sequence family analysis of parallel assessment populations, acyclovir candidates; type: binding; details: for presence in the negative population: sequenced final generation library responding to 1X selection buffer; for presence in the counter-targets population: sequenced final generation library responding to counter-targets; for Enrichment rate: ratio between final positive and penultimate positive population
From the text: The Illumina MiSeq system (San Diego, CA) was implemented to sequence the aptamer libraries after parallel assessment using a single-end read technique. Deep sequencing and subsequent data analysis reduces the large number of screening rounds traditional SELEX requires, which may introduce error and bias due to the screening process (Schütze et al., 2011). Five samples were sequenced: the final generation library that responded to acyclovir, the final generation library that responded to the counter-targets, the final generation library that responded to 1× selection buffer (negative condition), the penultimate generation library that responded to acyclovir, and the final generation library that responded to the additional target of interest, penciclovir. From these sets of data, sequence families were constructed at 95% homology (sequence similarity considering mutations, deletions, and insertion) for aptamer candidate identification. There were 1,711,535 raw sequences (124,600 unique sequences) from the library that responded to acyclovir and 2,074,832 raw sequences (110,149 unique sequences) from the library that responded to penciclovir.
Sequence family construction focused primarily on sequence similarity. This means that a sequence's frequency in the positive target population was factored in, but greater emphasis was placed on the degree of variation between similar sequences, with 95% homology being the minimum requirement (100% match over the entire sequence is not necessary to join a family, up to 2 bases can be mismatched, inserted, or deleted). One would therefore expect families with the greatest number of members to rank highly as aptamer candidates. […] Under these conditions, several candidate families appeared to be strong candidates for binding acyclovir (Table 2) and penciclovir.

[2] = Qualitative PAGE assessment of selected aptamers after graphene oxide selection; type: binding; details: 0.5 mM MgCl2, 37° C., 0.5 μM aptamer, 1 μM target or counter-targets
Protocol: Qualitative PAGE assessment of selected aptamers was performed. Individually synthesized and transcribed aptamers were subjected to selection on Graphene Oxide (GrO) under physiological Mg++ (0.5 mM) and elution with either acyclovir (+) or counter-targets (×). The specifically eluted aptamer fractions for each sample were subjected to PAGE for analysis.
Final library concentration was 0.5 μM, target/counter-targets concentration was 1 μM (incubation volume was 200 μl).
After target/counter-target incubation, 250 μg of GrO (Angstrom Materials (Dayton, OH) was added to adsorb unbound candidate (10-minute incubation at 37° C.).
Samples were centrifuged for 5 minutes at 7,000×g. […] Running buffer was 1×TBE (supplier: Amresco/VWR; catalog #0658-20L, diluted using DI water). DNA ladder was 20/100 DNA ladder (IDT). Gels stained with Gel Star (Lonza, 50535) and imaged on a blue light transilluminator.

CHO-Target 1 cells = test: pH shift cytotoxicity assay / HCl switch RTCA killing assay (xCELLigence); type: cell-based
Protocol: The cytotoxic activity of transduced T cells before and after pH change by addition of NaHCO3 or NaOH was measured using the xCELLigence System. Briefly, one day before the experiment, target cells (CHO cells stably transfected with a construct to express Target 1 on the cell surface (CHO-Target 1 cells)), were seeded into a 96-well E-plate (ACEA; San Diego, CA) at 10,000 cells/well with X-VIVO 15 media containing 40 mM HEPES and 40 mM PIPES, pH 6.7. Cryopreserved effector cells previously transduced with either lentiviral particles containing the nucleic acid encoding T1B or C1 (T1BVP and C1VP, respectively) produced as discussed above, were thawed and cultured for two days in X-VIVO 15 media containing 100 IU/mL of IL-2 (R&D Systems, Minneapolis, MN). On the day of the experiment, cells transduced with T1BVP or C1VP were washed and resuspended in X-VIVO 15 media containing 40 mM HEPES and 40 mM PIPES, pH 6.7 and then added into the experimental wells at effector cell/target cell ratios (E/T) of 1:1.
Impedance readings measured on the xCELLigence System (ACEA) were taken every 5 minutes and reported as the Cell Index (CI) to quantitate cell confluency as a measure of cell proliferation/cell lysis. Approximately 3 hours after effector cell addition, 8 μl of 7.5% NaHCO3 or 14 μl of 0.5 M NaOH was added into the wells with X-VIVO 15 media containing 40 mM HEPES and 40 mM PIPES, pH 6.7 to increase the pH from 6.7 to 7.4. Impedance readings were continued for approximately 20 hours after effector cell addition. Percentage of specific cytolysis was calculated as follows ((CI Target+C1VP transduced effector T cells)−(CI Target+T1BVP transduced effector T cells))/(CI Target+C1VP transduced effector T cells)×100.
The cytotoxic activity of transduced T cells before and after pH change by addition of HCl was measured using the xCELLigence System. Briefly, one day before the experiment, CHO-Target 1 cells were seeded into a 96 well E-plate at 10,000 cells/well with X-VIVO 15 media containing 40 mM HEPES and 40 mM PIPES, pH 7.4. Cryopreserved effector cells previously transduced with either C1VP or T1BVP, were thawed and cultured for two days in X-VIVO 15 media containing 100 IU/mL of IL-2. On the day of the experiment, cells transduced with T1BVP or C1VP were washed and resuspended in X-VIVO 15 media containing 40 mM HEPES and 40 mM PIPES, pH 7.4 and then added into experimental wells at effector cell/target cell ratios (E/T) of 1:1.
Impedance readings were taken every 5 minutes and reported as the Cell Index (CI). […] Impedance readings were continued for approximately 20 hours after effector cell addition. Percentage of specific cytolysis was calculated as follows ((CI Target+C1VP transduced effector T cells)−(CI Target+T1BVP transduced effector T cells))/(CI Target C1VP)×100.

[3] = Thermal denaturation by differential scanning calorimetry (DSC)
Protocol: At least 10 nmole of each candidate was lyophilized, and resuspended in 1× Binding Buffer (50 mM HEPES, 100 mM KCl, 0.5 mM MgCl2, pH 7.3) on the day of binding assessment.
All analyses were conducted in 1× Binding Buffer and all water used was DEPC-treated. All analytes were resuspended first in DEPC-treated water then diluted to their final listed concentration in 1× Binding Buffer. Prior to loading of the DSC (GE Healthcare MicroCal VP-DSC), the samples were degassed at 25° C. for 10 minutes.

deoxyguanosine switch = test: Tests of natural deoxyguanosine riboswitch with nucleoside analogues; type: binding
From the text: This example provides a method to screen libraries based on natural structural riboswitches that bind guanosine and deoxyguanosine. These riboswitches were used as scaffolds to develop biased libraries for the selection of aptamers that bind specifically to a ligand nucleoside analogue. Previously, isothermal titration calorimetry has been used to show these natural riboswitches bind to their native ligands. […] The single-stranded regions of the riboswitch were targeted for mutation and variant sequences that specifically respond to acyclovir or penciclovir were selected for.

F1A-996: acyclovir aptamer candidate; SEQ ID NO:221 (ACAGGGTAGCATAATGGCTTAGGACGCCTTCAAACCTATCAAGACT; RNA riboswitch aptamer, listed DNA covers non-stem region only, further chemistry not given here) [Candidate F1A-996]
presence in the negative population [1]: performing less well | presence in the counter-targets population [1]: show up to a small degree | response in qualitative PAGE assessment (elution from GrO with acyclovir vs counter-targets) [2]: selective positive response

F1A-582: acyclovir aptamer candidate, most prevalent sequence of family 582; SEQ ID NO:108 (ACAGCTTAGCGTAATGGCTACTGACGCCGTCCAAACCTATTTACAGACT; RNA riboswitch aptamer, listed DNA covers non-stem region only, further chemistry not given here) [Candidate F1A-582]
Enrichment rate [1]: greatest enrichment rate | presence in the negative population [1]: did not perform well | presence in the counter-targets population [1]: did not perform well

[Na+].[OH-] [NaOH]
effect on cytotoxic activity of MRB-CAR T cells of raising media pH from 6.7 to 7.4 (CHO-Target 1 cells; added about 3 hours after effector cells, E/T 1:1): inhibited the cytotoxic activity

F1A-795: acyclovir aptamer candidate, most prevalent sequence of family 795; SEQ ID NO:164 (ACAGCGAAGCATAATGGCTACTGACGCCCTCAAACCCTATTTGCAGACT; RNA riboswitch aptamer, listed DNA covers non-stem region only, further chemistry not given here) [Candidate F1A-795]
presence in the negative population [1]: performing less well | presence in the counter-targets population [1]: not detected | response in qualitative PAGE assessment (elution from GrO with acyclovir vs counter-targets) [2]: selective positive response | thermal denaturation transition ([3]; absence of acyclovir, 7.2 μM F1A-795, 1X Binding Buffer): about 60 °C | binding of acyclovir to the aptamer domain ([3]; concluded from stabilizing effect in DSC): bound by acyclovir

F1A-946: acyclovir aptamer candidate, most prevalent sequence of family 946; SEQ ID NO:198 (ACAGCGTAGCATAATGGGCTGCAGACGCCGTCAAACCTATTTGCAGACT; RNA riboswitch aptamer, listed DNA covers non-stem region only, further chemistry not given here) [Candidate F1A-946]
Enrichment rate [1]: performing adequately | presence in the negative population [1]: not found | presence in the counter-targets population [1]: not detected | response in qualitative PAGE assessment (elution from GrO with acyclovir vs counter-targets) [2]: selective positive response

Cl [HCl]
effect on cytotoxic activity of MRB-CAR T cells of switching media pH from 7.4 to 6.7 (CHO-Target 1 cells; 8 μl of 1 M HCl about 3 hours after effector cells, E/T 1:1): increased

F1A-769: acyclovir aptamer candidate, most prevalent sequence of family 769; SEQ ID NO:147 (ACAGGTCAGCATAATGTGCTAGTGCGCCTTCAAACCTATTTAGAGACT; RNA riboswitch aptamer, listed DNA covers non-stem region only, further chemistry not given here) [Candidate F1A-769]
Enrichment rate [1]: performing adequately | presence in the negative population [1]: minimally detected | response in qualitative PAGE assessment (elution from GrO with acyclovir vs counter-targets) [2]: selective positive response

F1A-961: acyclovir aptamer candidate; SEQ ID NO:220 (ACACCGTAGCATAATGGGCTACTGCCGCCGTCGACCTTTTGGAGACT; RNA riboswitch aptamer, listed DNA covers non-stem region only, further chemistry not given here) [Candidate F1A-961]
presence in the negative population [1]: performing less well | presence in the counter-targets population [1]: show up to a small degree

Nc1nc2c(ncn2CCC(CO)CO)c(=O)[nH]1 [penciclovir]
interaction with deoxyguanosine switch (deoxyguanosine switch): interacted weakly

F1A-935: acyclovir aptamer candidate, most prevalent sequence of family 935; SEQ ID NO:183 (ACAGGGTAGCATAATGGGCTACTTGACGCCTTCACCTATTTGTAGACT; RNA riboswitch aptamer, listed DNA covers non-stem region only, further chemistry not given here) [Candidate F1A-935]
Enrichment rate [1]: performing adequately | presence in the negative population [1]: not found | presence in the counter-targets population [1]: not detected

Nc1nc2c(ncn2COCCO)c(=O)[nH]1 [acyclovir]
interaction with deoxyguanosine switch (deoxyguanosine switch): interacted weakly

B1: T1B: an anti-Target 1 MRB-CAR from the series of candidate MRB-CARs in Example 3 (protein)
chain: EVQLVQSGAEVKKPGATVKISCKVSGYSFWGATMNWIRQPPGKGLEWIGLIKPSNGGTSYNQKFKGRVTISADKSISTAYLQWSSLKASDTAMYYCAHGHYESYEAMDYWGQGTLVTVSSGGGGSGGGGSGGGGSDIQMTQSPSSLSASVGDRVTITCKASQDVVSAVAWYQQKPGQAPRLLIYWQDTRHTGVPSRFSGSGSGTEFTLTISSLQPDDFATYYCQEHFSPPLTFGQGTKVEIKFWVLVVVGGVLACYSLLVTVAFIIFWVRSKRSRLLHSDYMNMTPRRPGPTRKHYQAYAAARDFAAYRSRVKFSRSADAPAYQQGQNQLYNELNLGRREEYDVLDKRRGRDPEMGGKPRRKNPQEGLYNELQKDKMAEAYSEIGMKGERRRGKGHDGLYQGLSTATKDTYDALHMQALPPR
cytotoxic activity on CHO-Target 1 cells (CHO-Target 1 cells; pH 7.4, E/T 1:1): low
